Test results from patent US10111426B2, “Biocidal materials” (priority 2011, dated 2018).

Assay: ultimate aerobic biodegradability in aqueous medium, OECD method 301 B
Conditions: on the fourteenth day / after 14 days
Protocol: This test is an evaluation, in aqueous medium, of the ultimate aerobic biodegradability of a sample of the concentrated formulation according to the invention. This test is carried out according to the provisions of OECD method 301 B at the concentration of […] corresponding to an organic carbon content of 10 mg/l. The theoretical amount of carbon dioxide formed (CO2Th) in the “concentrated disinfectant detergent for floors, surfaces and materials at 10 mg/l of DOC” test is equal to 33.0 mg/l.
The physicochemical analysis is carried out according to standard ASTM D5291.
FIG. 1 represents the curves of results of degradation with respect to CO2Th.

CC(=O)[O-].[Na+] [sodium acetate]
percentage degradation: 81%
